SMILES strings stand for the structures. Numbered stars: 1 amine (or outer) side, 2 acyl side, 3 side chain; on linkers, the order of the positions; unused ones are H or OH. Bridge positions count the residues as written; N and C are the ends. Square brackets hold non-standard residues; d marks the D form. Peptide text beside a SMILES is read from it. I, II: the chains in the order shown. Bip = N[C@@H](Cc1ccc(-c2ccccc2)cc1)C(=O)O; Phe(4-CN) = N#Cc1ccc(C[C@H](N)C(=O)O)cc1; 2Nal = N[C@@H](Cc1ccc2ccccc2c1)C(=O)O; Diglycolyl = O=C(COCC(=O)[*:2])[*:1]; NMeR = CN[C@@H](CCCNC(=N)N)C(=O)O; β3hE = N[C@@H](CCC(=O)O)CC(=O)O; Cha = N[C@@H](CC1CCCCC1)C(=O)O; NMeK = CN[C@@H](CCCCN)C(=O)O; Pen = CC(C)(S)[C@H](N)C(=O)O

Chain of α4β7 (P13612 34-1032): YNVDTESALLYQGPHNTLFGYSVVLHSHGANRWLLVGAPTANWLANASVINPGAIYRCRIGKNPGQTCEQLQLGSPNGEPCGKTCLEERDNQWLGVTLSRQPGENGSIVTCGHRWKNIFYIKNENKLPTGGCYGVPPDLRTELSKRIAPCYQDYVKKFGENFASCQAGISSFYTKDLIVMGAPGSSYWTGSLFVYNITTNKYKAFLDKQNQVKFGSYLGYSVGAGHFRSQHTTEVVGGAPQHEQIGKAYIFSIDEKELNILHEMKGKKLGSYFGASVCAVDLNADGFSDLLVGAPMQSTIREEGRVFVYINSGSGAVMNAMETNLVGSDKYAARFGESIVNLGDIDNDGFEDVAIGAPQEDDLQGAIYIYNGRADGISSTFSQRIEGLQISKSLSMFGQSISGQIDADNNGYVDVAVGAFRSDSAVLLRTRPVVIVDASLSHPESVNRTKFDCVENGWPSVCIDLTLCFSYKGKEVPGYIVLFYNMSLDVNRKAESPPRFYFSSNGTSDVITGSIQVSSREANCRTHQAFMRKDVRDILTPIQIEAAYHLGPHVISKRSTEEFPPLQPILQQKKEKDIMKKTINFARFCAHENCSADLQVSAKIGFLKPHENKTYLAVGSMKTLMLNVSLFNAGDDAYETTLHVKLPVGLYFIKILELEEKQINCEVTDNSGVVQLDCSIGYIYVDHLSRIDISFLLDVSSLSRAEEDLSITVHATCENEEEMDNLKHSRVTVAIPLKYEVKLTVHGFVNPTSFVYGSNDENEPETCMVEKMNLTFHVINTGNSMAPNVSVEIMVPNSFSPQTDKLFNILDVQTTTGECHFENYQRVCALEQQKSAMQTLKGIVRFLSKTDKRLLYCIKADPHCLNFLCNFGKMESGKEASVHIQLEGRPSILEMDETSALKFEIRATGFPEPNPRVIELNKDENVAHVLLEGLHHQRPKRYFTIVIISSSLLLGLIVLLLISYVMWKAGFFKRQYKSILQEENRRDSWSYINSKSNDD
Chain of α4β7 (P26010 20-798): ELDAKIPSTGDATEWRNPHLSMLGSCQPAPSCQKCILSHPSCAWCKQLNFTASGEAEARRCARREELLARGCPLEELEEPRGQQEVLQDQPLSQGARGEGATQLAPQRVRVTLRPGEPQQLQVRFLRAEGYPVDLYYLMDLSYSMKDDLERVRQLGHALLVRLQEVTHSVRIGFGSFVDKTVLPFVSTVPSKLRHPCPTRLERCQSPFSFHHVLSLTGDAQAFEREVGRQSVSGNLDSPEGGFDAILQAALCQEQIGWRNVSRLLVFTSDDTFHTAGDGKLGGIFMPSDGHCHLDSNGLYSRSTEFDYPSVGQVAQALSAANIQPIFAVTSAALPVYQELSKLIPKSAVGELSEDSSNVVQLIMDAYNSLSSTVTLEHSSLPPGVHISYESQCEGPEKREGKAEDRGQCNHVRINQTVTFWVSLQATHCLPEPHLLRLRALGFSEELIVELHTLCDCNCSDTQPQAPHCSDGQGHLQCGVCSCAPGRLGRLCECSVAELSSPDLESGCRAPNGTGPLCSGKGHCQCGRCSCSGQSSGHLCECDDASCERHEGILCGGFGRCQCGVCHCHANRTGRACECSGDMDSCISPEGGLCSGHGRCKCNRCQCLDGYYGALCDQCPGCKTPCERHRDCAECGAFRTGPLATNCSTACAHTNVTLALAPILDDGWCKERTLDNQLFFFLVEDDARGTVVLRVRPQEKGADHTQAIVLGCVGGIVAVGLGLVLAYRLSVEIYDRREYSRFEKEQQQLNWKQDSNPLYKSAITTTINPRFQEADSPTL

This assay has as its target α4β7 (Homo sapiens, UniProt P13612+P26010). Kind of assay: α4β7-MAdCAM Cell Adhesion Assay (RPMI 8866 human cells). It is filed as cell-based. Also on record: host or cells: RPMI 8866 human B lymphoblastoid cells. Particulars: Table 3-B, Potency (α4β7); range classes; read-out: α4β7 cell (Hu) IC50. In outline:
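Adhesion read-out: MTT absorbance at 570 nm minus no-cell wells, after three washes. Plates coated with rh MAdCAM-1/Fc received peptide dilutions plus 200,000 RPMI 8866 cells in Mn2+ (1 mM)-supplemented DMEM, 0.1% BSA, HEPES pH 7, incubated 30-45 min, 37 °C.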
Take `CC(=O)N[C@@H]1C(=O)N(C)[C@@H](CCCNC(=N)N)C(=O)N[C@@H](CO)C(=O)N[C@@H](CC(=O)O)C(=O)N[C@@H]([C@@H](C)O)C(=O)N[C@@H](CC(C)C)C(=O)N[C@H](C(=O)N[C@@H](Cc2ccc(O)cc2)C(=O)N[C@H](CCC(=O)O)C(=O)N[C@H](CCCCNC(=O)COCC(=O)NCCCC[C@@H](NC(=O)[C@@H](CCC(=O)O)NC(=O)[C@H](Cc2ccc(O)cc2)NC(=O)[C@H]2NC(=O)[C@H](CC(C)C)NC(=O)[C@H]([C@@H](C)O)NC(=O)[C@H](CC(=O)O)NC(=O)[C@H](CO)NC(=O)[C@H](CCCNC(=N)N)N(C)C(=O)[C@@H](NC(C)=O)C(C)(C)SSC2(C)C)C(N)=O)C(N)=O)C(C)(C)SSC1(C)C` [compound 123] (I: Ac-[Pen][NMeR]SDTL[Pen]Y[dE][dK]-NH2 / II: Ac-[Pen][NMeR]SDTL[Pen]Y[dE][dK]-NH2; disulfide I:1-I:7, II:1-II:7; linker I:10-II:10 via Diglycolyl): the IC50 was 50 to 100 nM.
The result for `CC(=O)N[C@@H]1C(=O)N(C)[C@@H](CCCNC(=N)N)C(=O)N[C@@H](CO)C(=O)N[C@@H](CC(=O)O)C(=O)N[C@@H]([C@@H](C)O)C(=O)N[C@@H](CC(C)C)C(=O)N[C@H](C(=O)N[C@@H](Cc2c[nH]cn2)C(=O)N[C@H](CCC(=O)O)C(=O)N[C@H](CCCCNC(=O)COCC(=O)NCCCC[C@@H](NC(=O)[C@@H](CCC(=O)O)NC(=O)[C@H](Cc2c[nH]cn2)NC(=O)[C@H]2NC(=O)[C@H](CC(C)C)NC(=O)[C@H]([C@@H](C)O)NC(=O)[C@H](CC(=O)O)NC(=O)[C@H](CO)NC(=O)[C@H](CCCNC(=N)N)N(C)C(=O)[C@@H](NC(C)=O)C(C)(C)SSC2(C)C)C(N)=O)C(N)=O)C(C)(C)SSC1(C)C` [compound 124] (I: Ac-[Pen][NMeR]SDTL[Pen]H[dE][dK]-NH2 / II: Ac-[Pen][NMeR]SDTL[Pen]H[dE][dK]-NH2; disulfide I:1-I:7, II:1-II:7; linker I:10-II:10 via Diglycolyl) reads 100 to 500 nM; that for `CC(=O)N[C@@H]1C(=O)N(C)[C@@H](CCCNC(=N)N)C(=O)N[C@@H](CO)C(=O)N[C@@H](CC(=O)O)C(=O)N[C@@H]([C@@H](C)O)C(=O)N[C@@H](CC(C)C)C(=O)N[C@H](C(=O)N[C@@H](Cc2ccc(-c3ccccc3)cc2)C(=O)N[C@@H](CCC(=O)O)CC(=O)N[C@H](CCCCNC(=O)COCC(=O)NCCCC[C@@H](NC(=O)C[C@H](CCC(=O)O)NC(=O)[C@H](Cc2ccc(-c3ccccc3)cc2)NC(=O)[C@H]2NC(=O)[C@H](CC(C)C)NC(=O)[C@H]([C@@H](C)O)NC(=O)[C@H](CC(=O)O)NC(=O)[C@H](CO)NC(=O)[C@H](CCCNC(=N)N)N(C)C(=O)[C@@H](NC(C)=O)C(C)(C)SSC2(C)C)C(N)=O)C(N)=O)C(C)(C)SSC1(C)C` [compound 135] (I: Ac-[Pen][NMeR]SDTL[Pen][Bip][β3hE][dK]-NH2 / II: Ac-[Pen][NMeR]SDTL[Pen][Bip][β3hE][dK]-NH2; disulfide I:1-I:7, II:1-II:7; linker I:10-II:10 via Diglycolyl), < 10 nM.
The result for `CC(=O)N[C@@H]1C(=O)N(C)[C@@H](CCCNC(=N)N)C(=O)N[C@@H](CO)C(=O)N[C@@H](CC(=O)O)C(=O)N[C@@H]([C@@H](C)O)C(=O)N[C@@H](CC(C)C)C(=O)N[C@H](C(=O)N[C@@H](Cc2ccc(-c3ccccc3)cc2)C(=O)N[C@@H](CCC(=O)O)C(=O)N(C)[C@@H](CCCCNC(=O)COCC(=O)NCCCC[C@@H](C(N)=O)N(C)C(=O)[C@H](CCC(=O)O)NC(=O)[C@H](Cc2ccc(-c3ccccc3)cc2)NC(=O)[C@H]2NC(=O)[C@H](CC(C)C)NC(=O)[C@H]([C@@H](C)O)NC(=O)[C@H](CC(=O)O)NC(=O)[C@H](CO)NC(=O)[C@H](CCCNC(=N)N)N(C)C(=O)[C@@H](NC(C)=O)C(C)(C)SSC2(C)C)C(N)=O)C(C)(C)SSC1(C)C` [compound 136] (I: Ac-[Pen][NMeR]SDTL[Pen][Bip]E[NMeK]-NH2 / II: Ac-[Pen][NMeR]SDTL[Pen][Bip]E[NMeK]-NH2; disulfide I:1-I:7, II:1-II:7; linker I:10-II:10 via Diglycolyl) reads < 10 nM; that for `CC(=O)N[C@@H]1C(=O)N(C)[C@@H](CCCNC(=N)N)C(=O)N[C@@H](CO)C(=O)N[C@@H](CC(=O)O)C(=O)N[C@@H]([C@@H](C)O)C(=O)N[C@@H](CC(C)C)C(=O)N[C@H](C(=O)N[C@@H](Cc2ccc(C#N)cc2)C(=O)N[C@@H](CCC(=O)O)CC(=O)N[C@H](CCCCNC(=O)COCC(=O)NCCCC[C@@H](NC(=O)C[C@H](CCC(=O)O)NC(=O)[C@H](Cc2ccc(C#N)cc2)NC(=O)[C@H]2NC(=O)[C@H](CC(C)C)NC(=O)[C@H]([C@@H](C)O)NC(=O)[C@H](CC(=O)O)NC(=O)[C@H](CO)NC(=O)[C@H](CCCNC(=N)N)N(C)C(=O)[C@@H](NC(C)=O)C(C)(C)SSC2(C)C)C(N)=O)C(N)=O)C(C)(C)SSC1(C)C` [compound 139] (I: Ac-[Pen][NMeR]SDTL[Pen][Phe(4-CN)][β3hE][dK]-NH2 / II: Ac-[Pen][NMeR]SDTL[Pen][Phe(4-CN)][β3hE][dK]-NH2; disulfide I:1-I:7, II:1-II:7; linker I:10-II:10 via Diglycolyl), < 10 nM; that for `CC(=O)N[C@@H]1C(=O)N(C)[C@@H](CCCNC(=N)N)C(=O)N[C@@H](CO)C(=O)N[C@@H](CC(=O)O)C(=O)N[C@@H]([C@@H](C)O)C(=O)N[C@@H](CC(C)C)C(=O)N[C@H](C(=O)N[C@@H](Cc2ccc3ccccc3c2)C(=O)N[C@@H](C(=O)N[C@H](CCCCNC(=O)COCC(=O)NCCCC[C@@H](NC(=O)[C@H](NC(=O)[C@H](Cc2ccc3ccccc3c2)NC(=O)[C@H]2NC(=O)[C@H](CC(C)C)NC(=O)[C@H]([C@@H](C)O)NC(=O)[C@H](CC(=O)O)NC(=O)[C@H](CO)NC(=O)[C@H](CCCNC(=N)N)N(C)C(=O)[C@@H](NC(C)=O)C(C)(C)SSC2(C)C)[C@H](C)O)C(N)=O)C(N)=O)[C@H](C)O)C(C)(C)SSC1(C)C` [compound 140] (I: Ac-[Pen][NMeR]SDTL[Pen][2Nal][dT][dK]-NH2 / II: Ac-[Pen][NMeR]SDTL[Pen][2Nal][dT][dK]-NH2; disulfide I:1-I:7, II:1-II:7; linker I:10-II:10 via Diglycolyl), 10 to 25 nM.
The figure for `CC(=O)N[C@@H]1C(=O)N(C)[C@@H](CCCNC(=N)N)C(=O)N[C@@H](CO)C(=O)N[C@@H](CC(=O)O)C(=O)N[C@@H](C(C)C)C(=O)N[C@@H](CC(C)C)C(=O)N[C@H](C(=O)N[C@@H](Cc2ccc3ccccc3c2)C(=O)N[C@H](CCC(=O)O)C(N)=O)C(C)(C)SSC1(C)C` [compound 156] (Ac-[Pen][NMeR]SDVL[Pen][2Nal][dE]-NH2; disulfide 1-7) is 100 to 500 nM.
On to `CC(=O)N[C@@H]1C(=O)N(C)[C@@H](CCCNC(=N)N)C(=O)N[C@@H](CO)C(=O)N[C@@H](CC(=O)O)C(=O)N[C@@H](Cc2ccccc2)C(=O)N[C@@H](CC(C)C)C(=O)N[C@H](C(=O)N[C@@H](Cc2ccc3ccccc3c2)C(=O)N[C@H](CCC(=O)O)C(N)=O)C(C)(C)SSC1(C)C` [compound 157] (Ac-[Pen][NMeR]SDFL[Pen][2Nal][dE]-NH2; disulfide 1-7), for which the concentration for half-maximal inhibition (IC50) was in the range of 1000 to 10000 nM.
In the case of `CC(=O)N[C@@H]1C(=O)N(C)[C@@H](CCCNC(=N)N)C(=O)N[C@@H](CO)C(=O)N[C@@H](CC(=O)O)C(=O)N[C@@H](CC2CCCCC2)C(=O)N[C@@H](CC(C)C)C(=O)N[C@H](C(=O)N[C@@H](Cc2ccc3ccccc3c2)C(=O)N[C@H](CCC(=O)O)C(N)=O)C(C)(C)SSC1(C)C` [compound 158] (Ac-[Pen][NMeR]SD[Cha]L[Pen][2Nal][dE]-NH2; disulfide 1-7), the IC50 fell in the range of 1000 to 10000 nM.

Broadly, the IC50 is the concentration needed to halve the response being measured.

These data come from patent US9809623B2, “α4β7 peptide monomer and dimer antagonists” (Protagonist Therapeutics, Inc., priority 2014, dated 2017).
